From ChEMBL document CHEMBL1201862, “PubChem BioAssay data set” (2004)
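In this assay, cells in 96-well plates receive the compound at five concentrations for 48 hours. Endpoints are linearly interpolated between the surrounding concentrations. GI50 = concentration required for 50% inhibition of growth.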 Activity calls are given as the source filed them. No stated cut-off is given here; in the data, active = GI50 up to about 1.1 µM and inactive = higher.

Columns and labels:
Test in all cases: NCI tumour cell line growth inhibition, 48 h
DLD-1 = tested on: DLD-1
DMS-273 = tested on: DMS-273
EKVX = tested on: EKVX
HL-60 = tested on: HL-60
IGROV-1 = tested on: IGROV-1
K562 = tested on: K562
KM-20L2 = tested on: KM-20L2
Malme-3M = tested on: Malme-3M
NCI-H23 = tested on: NCI-H23
OVCAR-8 = tested on: OVCAR-8
SF-539 = tested on: SF-539
SK-MEL-2 = tested on: SK-MEL-2
SK-OV-3 = tested on: SK-OV-3
SNB-19 = tested on: SNB-19
SR = tested on: SR
UACC-257 = tested on: UACC-257
XF498 = tested on: XF498
KM12 = tested on: KM12
HOP-62 = tested on: HOP-62
OVCAR-3 = tested on: OVCAR-3

Compound	GI50 (DLD-1)	GI50 (DMS-273)	GI50 (EKVX)	GI50 (HL-60)	GI50 (IGROV-1)	GI50 (K562)	GI50 (KM-20L2)	GI50 (Malme-3M)	GI50 (NCI-H23)	GI50 (OVCAR-8)	GI50 (SF-539)	GI50 (SK-MEL-2)	GI50 (SK-OV-3)	GI50 (SNB-19)	GI50 (SR)	GI50 (UACC-257)	GI50 (XF498)	GI50 (KM12)	GI50 (HOP-62)	GI50 (OVCAR-3)
CC(C)=CCC/C(C)=C/C=C/C(C)=C/C1C[C@@]2(C(O)O1)[C@H](CCCO)/C(=C(/C)C=O)CC[C@]2(C)O (some centres not stated)	16.4 µM (inactive)	1.39 µM (inactive)	11.9 µM (inactive)	11.1 µM (inactive)	22.3 µM (inactive)	8.89 µM (inactive)	15.3 µM (inactive)	4.59 µM (inactive)	> 10 µM (inactive)	22 µM (inactive)	12.2 µM (inactive)	18.6 µM (inactive)	> 10 µM (inactive)	19.1 µM (inactive)	14.6 µM (inactive)	25.4 µM (inactive)	18.3 µM (inactive)			
CC1CC[P+](c2ccccc2)(c2ccccc2)c2c1ccc1ccccc21 (configuration not stated)	3.74 µM (inactive)	0.405 µM (active)		1.28 µM (inactive)		0.589 µM (active)	2.5 µM (inactive)	5.96 µM (inactive)	1.57 µM (inactive)	1.84 µM (inactive)	5.26 µM (inactive)	1.63 µM (inactive)		2.44 µM (inactive)		0.385 µM (active)		1.59 µM (inactive)		
O=C1CCC23CC(C=CC=C12)n1c(=O)n(-c2ccccc2)c(=O)n13 (configuration not stated)	66.2 µM (inactive)	71.4 µM (inactive)	> 100 µM (inactive)	31 µM (inactive)	> 100 µM (inactive)	39.8 µM (inactive)		> 100 µM (inactive)	99.1 µM (inactive)	> 100 µM (inactive)	> 100 µM (inactive)	> 100 µM (inactive)	> 100 µM (inactive)	> 100 µM (inactive)		> 100 µM (inactive)	> 100 µM (inactive)	> 100 µM (inactive)	> 100 µM (inactive)	> 100 µM (inactive)
Cc1ccc(NC(=O)OCC(COc2ccc(Cl)cc2)OC(=O)Nc2ccc(C)cc2)cc1 (configuration not stated)	30.5 µM (inactive)	15.8 µM (inactive)	70.3 µM (inactive)	0.938 µM (active)	9.79 µM (inactive)	9.27 µM (inactive)	36.7 µM (inactive)	19 µM (inactive)	25.9 µM (inactive)	81.3 µM (inactive)	21.6 µM (inactive)	15 µM (inactive)	58.6 µM (inactive)	19.6 µM (inactive)	> 100 µM (inactive)	21.9 µM (inactive)	26.4 µM (inactive)	23 µM (inactive)	26.6 µM (inactive)	14.6 µM (inactive)
CCCCCCCCCCCCCC(=O)OC1C(O)C(CO)OC(OC)C1NC(=O)N(CCCl)N=O (configuration not stated)	> 100 µM (inactive)	71.1 µM (inactive)			> 100 µM (inactive)	> 100 µM (inactive)	> 100 µM (inactive)	> 100 µM (inactive)	28.6 µM (inactive)	43.6 µM (inactive)	16.4 µM (inactive)	> 100 µM (inactive)		23.7 µM (inactive)	23.2 µM (inactive)	28.8 µM (inactive)	48.9 µM (inactive)	> 100 µM (inactive)	50.7 µM (inactive)	> 100 µM (inactive)
C1CSCCSCSCCS1			> 100 µM (inactive)		> 100 µM (inactive)				> 100 µM (inactive)	> 100 µM (inactive)	> 100 µM (inactive)	> 100 µM (inactive)	> 100 µM (inactive)	> 100 µM (inactive)		> 100 µM (inactive)		> 100 µM (inactive)	> 100 µM (inactive)	> 100 µM (inactive)
c1cncc(O[Si](Oc2cccnc2)(Oc2cccnc2)Oc2cccnc2)c1	> 100 µM (inactive)	> 100 µM (inactive)	> 100 µM (inactive)		> 100 µM (inactive)			> 100 µM (inactive)	> 100 µM (inactive)	> 100 µM (inactive)	> 100 µM (inactive)	> 100 µM (inactive)	> 100 µM (inactive)	> 100 µM (inactive)	> 100 µM (inactive)	> 100 µM (inactive)	> 100 µM (inactive)	> 100 µM (inactive)		> 100 µM (inactive)
N#Cc1ccc(C2Oc3ccc(Cl)cc3C=C2[N+](=O)[O-])cc1 (configuration not stated)			1.75 µM (inactive)	0.841 µM (active)	1.61 µM (inactive)	0.354 µM (active)		2.11 µM (inactive)	1.48 µM (inactive)	> 10 µM (inactive)	1.87 µM (inactive)	1.74 µM (inactive)	2.27 µM (inactive)	2.67 µM (inactive)	0.157 µM (active)	2.4 µM (inactive)		1.9 µM (inactive)	1.98 µM (inactive)	1.63 µM (inactive)
CCOC(=O)N1C=NC23C(c4ccccc4)C(c4ccccc4)C12C(=O)N(C)C(=O)N3C (configuration not stated)	> 100 µM (inactive)	> 100 µM (inactive)	> 100 µM (inactive)	56.1 µM (inactive)	> 100 µM (inactive)	> 100 µM (inactive)	> 100 µM (inactive)	> 100 µM (inactive)	> 100 µM (inactive)	> 100 µM (inactive)		> 100 µM (inactive)	> 100 µM (inactive)	> 100 µM (inactive)	> 100 µM (inactive)	> 100 µM (inactive)	> 100 µM (inactive)	> 100 µM (inactive)	> 100 µM (inactive)	> 100 µM (inactive)
N#C[C@H](OC1OC(COC2OC(CO)C(O)C(O)C2O)C(O)C(O)C1O)c1ccccc1 (some centres not stated)	> 250 µM (inactive)	> 250 µM (inactive)	> 250 µM (inactive)	158 µM (inactive)	> 250 µM (inactive)	> 250 µM (inactive)	> 250 µM (inactive)	> 250 µM (inactive)	> 250 µM (inactive)	> 250 µM (inactive)	> 214 µM (inactive)	> 250 µM (inactive)	> 250 µM (inactive)	> 250 µM (inactive)		234 µM (inactive)	23.4 µM (inactive)	> 250 µM (inactive)	> 250 µM (inactive)	> 250 µM (inactive)
SC1=Nc2ccccc2-c2nc(-c3ccccc3)cc(-c3ccc(Br)cc3)c2C1			1.33 µM (inactive)	18.4 µM (inactive)	1.22 µM (inactive)	2.9 µM (inactive)		2.59 µM (inactive)	2.65 µM (inactive)	1.1 µM (active)	3.27 µM (inactive)	6.47 µM (inactive)	0.897 µM (active)	1.21 µM (inactive)		3.15 µM (inactive)		12 µM (inactive)	1.31 µM (inactive)	2.29 µM (inactive)
